Results as given in article PMC6557261 (Cell chemical biology, 2019).

Tests used:
peroxiredoxin 1 (Prx1) = target: T1, peroxiredoxin 1 (Prx1) (Homo sapiens, UniProt Q06830); experiment: glutamine synthetase protection assay with recombinant Prx1; format: biochemical
T1 sequence (Q06830 2-199): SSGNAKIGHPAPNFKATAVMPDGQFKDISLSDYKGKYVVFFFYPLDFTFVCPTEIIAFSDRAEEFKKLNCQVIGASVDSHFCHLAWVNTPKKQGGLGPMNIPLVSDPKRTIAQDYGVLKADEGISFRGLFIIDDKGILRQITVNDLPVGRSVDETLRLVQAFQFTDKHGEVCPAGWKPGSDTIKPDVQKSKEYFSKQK

peroxiredoxin 2 (Prx2) = target: T2, peroxiredoxin 2 (Prx2) (Homo sapiens, UniProt P32119); experiment: glutamine synthetase protection assay with recombinant Prx2; format: biochemical
T2 sequence (P32119 2-198): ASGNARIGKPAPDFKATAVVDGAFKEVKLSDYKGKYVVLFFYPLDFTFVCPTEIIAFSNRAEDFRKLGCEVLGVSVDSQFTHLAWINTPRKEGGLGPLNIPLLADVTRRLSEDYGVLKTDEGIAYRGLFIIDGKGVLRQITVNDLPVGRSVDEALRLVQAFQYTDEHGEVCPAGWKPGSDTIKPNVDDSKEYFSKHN

Work on CCC[C@H]1O[C@@H]2CC(=O)O[C@@H]2C2=C1C(=O)c1c(O)cccc1C2=O [FB, frenolicin B] yielded an IC50 (peroxiredoxin 1 (Prx1)) of 0.2 µM and an IC50 (peroxiredoxin 2 (Prx2)) of 4.2 µM.
